In ChEMBL document CHEMBL1149858, “Degradation-promoters of cellular inhibitor of apoptosis protein 1 based on bestatin and actinonin” (Bioorg Med Chem, 2008) one finds IC50 and Activity data, which are given here for 4 compounds.

Calls of active or inactive are those of the source. The calls are words filed in the database; no cut-off is given here. Bounds are passed on as bounds.

By IC50 is commonly meant the point on the concentration scale where inhibition reaches its midpoint.

Assay [1] addresses Baculoviral IAP repeat-containing protein 2 (Homo sapiens, UniProt Q13490). Description: Promotion of flag-tagged cIAP1 degradation in human HT1080 cells assessed as decrease in cIAPI production after 3 hrs. Type of assay: cell-based, HT-1080.
For assay [2], the system named is HT-1080. Description: Enhancement of anti-Fas antibody CH11-induced apoptosis of human HT1080 cells at 30 uM after 24 hrs. Type of assay: functional, cell-based.
The subject of assay [3] is HT-1080. Description: Enhancement of actinomycin D-induced apoptosis of human HT1080 cells at 10 uM. Type of assay: functional, cell-based.
Assay [4] concerns HT-1080. Description: Enhancement of cisplatin-induced apoptosis of human HT1080 cells at 10 uM. Type of assay: functional, cell-based.
Assay [5] concerns HT-1080. Kind of assay: Enhancement of etoposide-induced apoptosis of human HT1080 cells at 10 uM. Type of assay: functional, cell-based.
The test system of assay [6] is HT-1080. Kind of assay: Enhancement of camptothecin-induced apoptosis of human HT1080 cells at 10 uM. Type of assay: functional, cell-based.

Chain of Baculoviral IAP repeat-containing protein 2 (Q13490 whole entry): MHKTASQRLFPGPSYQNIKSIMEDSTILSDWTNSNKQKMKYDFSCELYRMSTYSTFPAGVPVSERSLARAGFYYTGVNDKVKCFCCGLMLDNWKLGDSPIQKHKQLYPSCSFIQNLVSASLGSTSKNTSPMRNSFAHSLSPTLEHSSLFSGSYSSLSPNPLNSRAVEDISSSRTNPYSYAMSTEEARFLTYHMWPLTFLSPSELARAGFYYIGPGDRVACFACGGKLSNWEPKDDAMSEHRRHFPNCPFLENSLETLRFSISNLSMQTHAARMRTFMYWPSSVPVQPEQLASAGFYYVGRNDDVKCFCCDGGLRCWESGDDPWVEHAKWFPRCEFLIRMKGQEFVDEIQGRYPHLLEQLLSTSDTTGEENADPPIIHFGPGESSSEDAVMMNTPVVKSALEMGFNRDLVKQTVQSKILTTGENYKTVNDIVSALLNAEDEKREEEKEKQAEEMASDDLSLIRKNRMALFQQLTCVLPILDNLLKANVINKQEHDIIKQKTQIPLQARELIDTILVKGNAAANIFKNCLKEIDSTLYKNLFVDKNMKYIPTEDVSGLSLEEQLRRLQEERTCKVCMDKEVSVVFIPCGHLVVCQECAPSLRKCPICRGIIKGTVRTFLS

Consider `CCCCC[C@H](CC(=O)NO)C(=O)N[C@H](C(=O)OC)C(C)(C)C`, for which the IC50 in assay [1] was greater than 20 µM.
Consider `COC(=O)[C@H](CC(C)C)NC(=O)[C@H](N)CC(=O)NO`, for which the result in assay [1] (HT-1080) was inactive.
For the compound `COC(=O)[C@H](CC(C)C)NC(=O)[C@@H](O)[C@H](N)Cc1ccccc1`, the result in the assay with HT-1080 [2], in the assay with HT-1080 [3], in the assay with HT-1080 [4], with HT-1080 [5] and with HT-1080 [6] was Active.
As for `CCCCC[C@H](CC(=O)NO)C(=O)N[C@@H](C)C(=O)OC`, the result in the assay with HT-1080 [3], with HT-1080 [4], in the assay on HT-1080 [5] and in the assay with HT-1080 [6] was Active.
